The record followed here is patent US20200147149A1, “COMPOSITIONS AND METHODS FOR THE MODULATION OF GUT SENSORY CELLS” (Duke University, priority 2017, published 2020).

Test [1] relates to nodose neurons. The test can be described thus: Patch-clamp electrophysiology of nodose neurons cultured alone. The format is cell-based, mouse. The conditions noted are these: 10-20 mM D-glucose.
Test [2] relates to intestinal CCK enteroendocrine cells. The test can be described thus: Calcium imaging (GCaMP6s) of enteroendocrine cells in CckCRE_tdTomato intestinal organoids. The format is cell-based, mouse. The settings on record: n=3. The method, then: For neurons, Phox2bCRE_GCaMP6s (n=3) nodose neurons were dissociated and plated. Nodose ganglia were dissected and digested in Liberase (Roche, 5401054001). Neurons were washed and filtered through a 70 μm cell strainer, then plated on 12 mm coverslips and placed in an incubator overnight. Cells were imaged 1-2 days later. Coverslips were placed in the recording chamber of a Zeiss Examiner Z1 and imaged with a Hamamatsu camera (Orca-flash4.0; C11440) using the Zeiss ZEN software package. For enteroendocrine cells, CckCRE_tdTomato organoids with transduced with ΔG-rabies-GCaMP6s. Organoids were imaged using multi photon microscopy 3-4 days after transduction. Imaging buffer (in mM: 140 NaCl, 5 KCl, 2 CaCl2, 2 MgCl2, 10 HEPES) was continuously perfused over the coverslips. […] Images were analyzed with Fiji ([…]), and cell traces were plotted with Matlab.

The test system of test [3] is enteroendocrine cells. Briefly: iGluSnFR-HEK cell and CckCRE_tdTomato enteroendocrine cell co-culture, imaging of glutamate release. The format is cell-based, mouse. The conditions noted are these: D-glucose 40 mM, n=3 cultures. The method, then:
(§1) CckCRE_tdTomato enteroendocrine cells were isolated as described above. Isolated cells were mixed with iGluSnFR-HEK cells at a ratio of 10:1, then plated on 1% Matrigel coated coverslips. Control iGluSnFR-HEK cells were plated alone. Cells were incubated for 12-18 hours before imaging. Coverslips were imaged using a multiphoton microscopy system (Bruker Ultima IV with a Chameleon Vision II tunable laser). Imaging frames were captured at 1.876 fps, using 920 nm light. Imaging series were analyzed using Fiji (ImageJ), and cell traces were plotted with Excel.

The test system of test [4] is iGluSnFR-HEK cells. Briefly: iGluSnFR-HEK cells cultured alone, multiphoton imaging. The format is cell-based. The settings on record: D-glucose 40 mM. The method, then:
HEK 293/17 cells (ATCC CRL-11268) were maintained in DMEM (Gibco 11965) supplemented with 10% FBS (Corning 35-010-CV), Glutamax, and non-essential amino acids (both Gibco). Cells were transfected with 1 ug plasmid pCMV(MinDis) iGluSnFR (Addgene 41732) using 1 ul Lipofectamine 2000 in Optimem (Gibco) in 24-well plates.
The 5.2 Kb iGluSnFR (pCMV(MinDis).iGluSnFR was a gift from Loren Looger; Addgene plasmid #41732) was moved to the zeocin resistant backbone of Addgene #51694 (DRH296: FCK-Optopatch2 was a gift from Adam Cohen) as a NdeI+XhoI fragment. The resulting plasmid (pMEK8) was transfected into HEK 293/17 cells (ATCC CRL-11268) using 1 μl Lipofectamine 2000/ug DNA. Cells were maintained in DMEM (Gibco 11965) supplemented with 10% FBS (Corning 35-010-CV), Glutamax, non-essential amino acids (both Gibco) and 3 μl/ml zeocin ([…], Invitrogen).
as §1

Test [5] concerns vagus nerve. The test can be described thus: Vagus nerve recording during intraluminal (duodenal) nutrient or CCK perfusion. The format is in vivo, mouse. The settings on record: D-glucose 150 mM perfused intraluminally, wild-type mice. The method, then:
Wild-type control (n=5-9), CckCRE_ChR2-tdTomato (n=6), CckCRE_Halorhodopsin-YFP (n=5), and Vglut1CRE_ChR2-YFP (n=6) mice were used for vagal recordings. Mice were anesthetized with 3 mg/g-mouse urethane 1 hour before surgery then with 0.5-1% isoflurane. A section of neck skin was removed between the jaw and clavicle. The thyroid was reflected bilaterally, and the carotid bundle was exposed using coarse dissection. The carotid nerve was separated from the vagus nerve using a curved blunt probe. Two platinum iridium wires (0.001″ diameter, PTFE coated, 10% Ir 90% Pt; Medwire by Sigmund Cohn Corp) were looped around the vagus nerve for recording. Mineral oil was used to insulate the vagus nerve from surrounding tissue. The small intestine was exposed by removing a section of skin and peritoneum. A 20 gauge gavage needle was surgically inserted through the stomach wall and into the duodenum. The gavage needle was sutured in place beyond the pyloric sphincter. Saline and stimulant tubes were connected to the gavage needle. For optogenetic experiments, a fiber optic cable (FT020, ThorLabs) was threaded through the gavage needle into the lumen of the duodenum. A perfusion exit incision was made 10 cm distal to the pyloric sphincter. During each recording, PBS was constantly perfused through the duodenum using a peristaltic pump (Cole-Parmer) at the lowest setting for a flow rate of ˜400 uL PBS per minute. Stimulation conditions were applied after recording 2 minutes of baseline activity. During whole nutrient stimulation conditions, PBS perfusion was continuous and 200 μL of ENSURE® was perfused through the second tube for 1 minute using a syringe pump. […] During CCK stimulation conditions, PBS perfusion was continuous, and 200 μL of 2.9 μM CCK octapeptide-sulfated (BaChem) was perfused through the second tube for 1 minute using a syringe pump (Fusion 200, Chemyx) for a final concentration of ˜870 nM CCK in PBS (10 μg/kg dose). […] Final stimulant concentrations were determined using the ratio of dilution and confirmed by osmolarity testing (Model 3320 Osmometer, Advanced Instruments Inc.). During 473 nm laser stimulation conditions, PBS perfusion was continuous, and the laser was pulsed for 1 minute at 40 Hz, 4 volts peak voltage, 20% duty cycle (473 nm, 80 mW laser, RGBlase).
Extracellular voltage was recorded from a pair of platinum iridium wires as described above. A differential amplifier and bandpass filter (1000× gain, 300 Hz-5 kHz bandpass filter; A-M Systems LLC) was used and the signal was processed using a data acquisition board and software (20 kHz sampling rate; Signal Express, National Instruments Corp). The raw data was analyzed using a spike sorting algorithm (MATLAB by MathWorks). Spikes were detected using simple threshold detection based on RMS noise. The firing rate was calculated using a Gaussian kernel smoothing algorithm (200-ms time scale).
Stimulation response was quantified as the maximum firing rate after stimulation (stimulant conditions) or during recording (baseline). Each trial serves as its own control by normalizing the maximum firing rate to the average baseline firing rate (defined as the first two minutes of recording, prior to stimulation onset). Mice were excluded from analysis if no sucrose response was present throughout recording. Maximum firing rate was analyzed across genotype, stimulation condition, and their interaction term by ANOVA, followed by HSD post hoc testing (iMP by SAS Institute).

“Also recorded” adds a separate entry of the source.

As for `O=C[C@H](O)[C@@H](O)[C@H](O)[C@H](O)CO` [D-glucose], the “excitatory currents / action potentials in nodose neurons cultured alone” value in test [1] is listed as “neither excitatory currents nor action potentials were observed”; in test [1] (listed as glucose), “did not activate”. In addition, the “magnitude of the sugar response as percent fluorescence of the KCl response” value in test [2] (20 mM D-glucose, 40 mM KCl control) is on record as 56.0±20%. The “calcium transients, percent of the KCl control response” value in test [2] (D-glucose (10 mM) as printed) is recorded as 56.0%±20.0. The “fluorescence response of iGluSnFR-HEK cells in close proximity to enteroendocrine cells (glutamate release)” value in test [3] is reported as “rapidly fluoresced green; also recorded: elicits a response”. Besides, the “fluorescence response of iGluSnFR-HEK cells cultured alone” value was “did not respond” in test [4] and “not” in test [4] (listed as Dglucose). Moreover, the vagal firing rate entry in test [5] is “had the same effect; also recorded: stimulate”.
